Data set [1] in a line: Blood pressure effect after two weeks oral treatment in L-NAME hypertensive rats. It is filed as in vivo. To be noted: 10 mg/kg daily for two weeks, L-NAME in drinking water, femoral artery cannula, 16 hours after the last administration. The method, then: (§1) The experiment was carried out according to the method described by M. N. Muscarà et al. Br. J. Pharmacol. 133, 1314, 2001, and employing groups of 10 rats weighing each 200-250 g.
(§2) The compounds, suspended in 1% carboxymethylcellulose, were administered orally for two weeks at a daily dose of 10 mg/kg body weight.
(§3) Hypertension was induced by addition of L-NAME (N-omega-nitro-L-arginine methylester) to the drinking water at a concentration of 400 mg/liter. At the end of the treatment, the blood pressure was determined by introduction of a cannula into femoral artery and measurement with polygraphic transducer, 16 hours after the last administration.

A short description of data set [2]: Gastric tolerability after two weeks oral treatment in L-NAME hypertensive rats. It is filed as in vivo. Particulars: 10 mg/kg daily for two weeks, hypertension induced by L-NAME 400 mg/liter in drinking water. Here is the method: as §1, §2, §3

On to `Cc1ccc(-c2cc(C(F)(F)F)nn2-c2ccc(S(=O)(=O)NC(=O)CCCO[N+](=O)[O-])cc2)cc1` [Example 4, N-[4-[5-(4-methylphenyl)-3-(trifluoromethyl)-1H-pyrazol-1-yl]phenylsulfonyl]-4-nitrooxy-butanamide], for which, in data set [1], the “effect on blood pressure” value is on record as “no increase of the blood pressure”. Also, the gastric tolerability result in data set [2] is “well tolerated”.
As to `Cc1ccc(-c2cc(C(F)(F)F)nn2-c2ccc(S(N)(=O)=O)cc2)cc1` [celecoxib, 4-[5-(4-methylphenyl)-3-(trifluoromethyl)-1H-pyrazol-1-yl]benzenesulfon-amide], the “increase of the blood pressure (average)” value in data set [1] came out at 15 mmHg. For the same molecule, in data set [2], the “gastric damage, share of the treated animals” value was 80%.

(Values after US7776902B2, “Nitrooxyderivatives of cyclooxygenase-2 inhibitors” (Nicox S.A., priority 2002, dated 2010).)
